This is an account of results in ChEMBL document CHEMBL1811850, “Exploration of acridine scaffold as a potentially interesting scaffold for discovering novel multi-target VEGFR-2 and Src kinase inhibitors” (Bioorg Med Chem, 2011).

A word on the IC50: it is the concentration that inhibits the measured activity by half. A higher IC50 goes with a need for much substance. One may read the inhibition as the percentage by which the read-out fell short of the control.

For one assay, the system named is HepG2. Nature of the assay: cells. The conditions noted are these: Homo sapiens, HepG2, 48 h.
In another assay the test system is MCF7. Put plainly: cells. The conditions noted are these: Homo sapiens, MCF7, 48 h.
The test system of assay [1] is K562. Nature of the assay: cells. The conditions noted are these: Homo sapiens, K562, 48 h.
The target of assay [2] is Proto-oncogene tyrosine-protein kinase Src (Homo sapiens) (UniProt P12931). Put plainly: Inhibition of SRC at 50 uM after 1 hr.
In assay [3] the target is Vascular endothelial growth factor receptor 2 (Homo sapiens) (UniProt P35968). Put plainly: Inhibition of VEGFR2 at 50 uM after 1 hr.
For assay [4], the target named is DNA topoisomerase 2-alpha (Homo sapiens) (UniProt P11388). Nature of the assay: Inhibition of human topoisomerase 2 at 1 to 50 uM for 40 mins using ethidium bromide by decatenation assay.
Assay [5] relates to K562. Put plainly: Ratio of imatinib IC50 to compound IC50 for human K562 cells after 48 hrs by MTT assay. The class given is functional. A general note: Tetrazolium dyes change colour on reduction, which living cells bring about.
The target of assay [6] is Proto-oncogene tyrosine-protein kinase Src (Homo sapiens) (UniProt P12931). Nature of the assay: Inhibition of SRC in human K562 cells assessed as reduction in activated ERK1/2 levels at 10 uM by Western blot analysis. The class given is cell-based. The conditions noted are these: TDE = time-dependent effect. In general terms: Immunoblotting shows a protein as a band on a membrane.

The target of assay [7] is Vascular endothelial growth factor receptor 2 (Homo sapiens) (UniProt P35968). Put plainly: Inhibition of VEGFR2 in human K562 cells assessed as reduction in activated ERK1/2 levels at 10 uM by Western blot analysis. The assay is classed as cell-based.
In another assay the test system is SK-MEL-28. Put plainly: Growth inhibition of SK-MEL-28 cells. The conditions noted are these: Homo sapiens.
Assay [8] is described as follows: Growth inhibition of A375M cells. The conditions noted are these: Homo sapiens.
Another assay relates to Malme-3M. Put plainly: cells. The conditions noted are these: Homo sapiens.

Activity calls are given as the source filed them. The rule behind the calls is not given here.

Chain of Vascular endothelial growth factor receptor 2 (Homo sapiens) (P35968 whole entry): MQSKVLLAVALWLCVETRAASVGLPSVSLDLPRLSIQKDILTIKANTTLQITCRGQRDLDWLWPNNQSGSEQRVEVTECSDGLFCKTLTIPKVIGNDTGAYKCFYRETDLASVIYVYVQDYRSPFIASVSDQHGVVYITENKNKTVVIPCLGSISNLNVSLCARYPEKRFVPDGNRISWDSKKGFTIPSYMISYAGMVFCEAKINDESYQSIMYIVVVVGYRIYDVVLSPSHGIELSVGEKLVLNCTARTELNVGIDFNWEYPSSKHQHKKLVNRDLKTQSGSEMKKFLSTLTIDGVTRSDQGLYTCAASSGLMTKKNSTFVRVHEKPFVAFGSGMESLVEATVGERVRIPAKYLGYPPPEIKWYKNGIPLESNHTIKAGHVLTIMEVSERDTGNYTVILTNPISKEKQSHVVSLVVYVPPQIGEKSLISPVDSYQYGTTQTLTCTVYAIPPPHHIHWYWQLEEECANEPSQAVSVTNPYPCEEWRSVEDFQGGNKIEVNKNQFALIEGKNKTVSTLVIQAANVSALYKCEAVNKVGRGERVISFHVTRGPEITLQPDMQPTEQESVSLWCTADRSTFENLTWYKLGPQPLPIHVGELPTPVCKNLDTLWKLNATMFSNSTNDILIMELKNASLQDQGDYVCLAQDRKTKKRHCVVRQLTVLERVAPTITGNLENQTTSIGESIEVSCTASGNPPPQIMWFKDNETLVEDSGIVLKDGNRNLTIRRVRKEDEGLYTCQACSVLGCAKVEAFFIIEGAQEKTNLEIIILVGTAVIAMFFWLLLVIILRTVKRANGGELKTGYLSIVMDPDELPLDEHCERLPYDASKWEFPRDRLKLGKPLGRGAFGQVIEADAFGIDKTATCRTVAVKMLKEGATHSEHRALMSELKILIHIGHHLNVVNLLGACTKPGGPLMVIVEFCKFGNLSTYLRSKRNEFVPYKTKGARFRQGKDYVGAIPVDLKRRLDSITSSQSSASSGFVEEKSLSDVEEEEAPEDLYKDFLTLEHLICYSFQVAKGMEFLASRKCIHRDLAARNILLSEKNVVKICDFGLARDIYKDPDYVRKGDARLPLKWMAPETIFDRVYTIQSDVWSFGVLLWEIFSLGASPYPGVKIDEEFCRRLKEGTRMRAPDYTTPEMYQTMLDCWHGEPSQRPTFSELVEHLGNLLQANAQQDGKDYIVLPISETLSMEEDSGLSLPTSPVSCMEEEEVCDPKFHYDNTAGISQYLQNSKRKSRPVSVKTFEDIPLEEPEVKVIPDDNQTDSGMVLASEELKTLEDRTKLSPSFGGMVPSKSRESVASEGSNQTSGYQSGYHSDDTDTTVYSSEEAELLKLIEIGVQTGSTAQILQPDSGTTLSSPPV
Chain of Proto-oncogene tyrosine-protein kinase Src (Homo sapiens) (P12931 2-536 limits assumed): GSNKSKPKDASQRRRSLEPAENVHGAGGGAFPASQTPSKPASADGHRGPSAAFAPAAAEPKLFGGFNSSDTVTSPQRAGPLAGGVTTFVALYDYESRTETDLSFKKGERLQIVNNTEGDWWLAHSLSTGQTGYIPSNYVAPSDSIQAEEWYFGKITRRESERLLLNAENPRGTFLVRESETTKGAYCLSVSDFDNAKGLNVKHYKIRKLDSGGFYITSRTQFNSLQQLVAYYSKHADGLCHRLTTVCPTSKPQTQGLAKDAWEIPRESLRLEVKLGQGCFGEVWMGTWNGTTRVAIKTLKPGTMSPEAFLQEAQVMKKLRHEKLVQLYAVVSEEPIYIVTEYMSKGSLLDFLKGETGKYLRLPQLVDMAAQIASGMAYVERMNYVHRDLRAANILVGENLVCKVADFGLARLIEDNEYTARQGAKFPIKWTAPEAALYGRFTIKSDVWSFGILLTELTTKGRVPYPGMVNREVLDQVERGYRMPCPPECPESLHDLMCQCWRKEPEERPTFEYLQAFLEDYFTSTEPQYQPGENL
Chain of DNA topoisomerase 2-alpha (Homo sapiens) (P11388 whole entry): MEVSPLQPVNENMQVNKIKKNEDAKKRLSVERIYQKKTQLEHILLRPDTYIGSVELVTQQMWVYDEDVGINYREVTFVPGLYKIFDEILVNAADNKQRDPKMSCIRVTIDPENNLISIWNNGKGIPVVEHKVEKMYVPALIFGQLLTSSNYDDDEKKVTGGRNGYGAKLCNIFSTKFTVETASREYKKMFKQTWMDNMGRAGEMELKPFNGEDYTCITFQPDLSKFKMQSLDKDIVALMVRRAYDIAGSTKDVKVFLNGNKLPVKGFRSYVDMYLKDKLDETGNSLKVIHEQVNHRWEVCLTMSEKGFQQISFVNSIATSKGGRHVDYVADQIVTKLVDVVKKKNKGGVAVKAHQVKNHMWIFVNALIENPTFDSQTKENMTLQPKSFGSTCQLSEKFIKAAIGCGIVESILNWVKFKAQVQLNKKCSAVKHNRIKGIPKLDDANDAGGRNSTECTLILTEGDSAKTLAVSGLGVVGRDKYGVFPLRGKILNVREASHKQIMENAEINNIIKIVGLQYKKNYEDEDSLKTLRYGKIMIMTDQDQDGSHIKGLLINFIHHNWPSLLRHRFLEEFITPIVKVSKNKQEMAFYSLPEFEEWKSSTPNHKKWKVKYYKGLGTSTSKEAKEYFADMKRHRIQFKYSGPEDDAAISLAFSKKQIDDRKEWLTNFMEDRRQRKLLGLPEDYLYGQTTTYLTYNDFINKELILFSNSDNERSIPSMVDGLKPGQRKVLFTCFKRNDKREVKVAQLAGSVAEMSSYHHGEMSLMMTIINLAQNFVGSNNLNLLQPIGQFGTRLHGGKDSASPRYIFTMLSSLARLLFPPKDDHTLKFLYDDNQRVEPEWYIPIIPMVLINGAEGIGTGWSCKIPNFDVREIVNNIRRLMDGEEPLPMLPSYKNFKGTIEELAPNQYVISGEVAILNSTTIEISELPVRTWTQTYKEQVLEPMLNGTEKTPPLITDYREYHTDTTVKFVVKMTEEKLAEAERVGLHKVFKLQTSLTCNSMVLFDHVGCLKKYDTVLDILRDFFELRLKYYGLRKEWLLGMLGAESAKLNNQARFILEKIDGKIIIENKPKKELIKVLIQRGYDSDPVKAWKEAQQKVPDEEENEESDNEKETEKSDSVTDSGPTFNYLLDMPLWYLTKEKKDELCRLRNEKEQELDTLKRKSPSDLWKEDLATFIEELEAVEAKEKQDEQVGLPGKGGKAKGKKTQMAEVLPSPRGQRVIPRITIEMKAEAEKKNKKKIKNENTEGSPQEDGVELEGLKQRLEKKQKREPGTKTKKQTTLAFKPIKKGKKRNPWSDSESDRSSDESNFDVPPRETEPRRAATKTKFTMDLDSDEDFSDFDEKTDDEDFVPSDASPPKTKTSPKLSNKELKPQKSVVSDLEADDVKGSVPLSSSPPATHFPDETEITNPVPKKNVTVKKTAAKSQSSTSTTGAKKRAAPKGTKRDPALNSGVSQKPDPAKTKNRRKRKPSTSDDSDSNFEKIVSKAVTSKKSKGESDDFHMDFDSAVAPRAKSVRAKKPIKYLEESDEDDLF
Description for Malme-3M: Growth inhibition of MALME-3M cells

Take `COc1ccc2nc3cc(Cl)ccc3c(Nc3ccccc3F)c2c1`: the IC50 in the assay with HepG2 was 46.1 µM; in the assay with MCF7, above 50 µM; in the assay with K562 [1], 13.5 µM.
`COc1ccc2nc3cc(Cl)ccc3c(Nc3ccccc3O)c2c1`: the results for the IC50 in the assay with HepG2, with MCF7 and with K562 [1] were 11.4 µM, above 50 µM and 4.9 µM, respectively.
Regarding `COc1ccc2nc3cc(Cl)ccc3c(Nc3ccc(OC(F)(F)F)cc3)c2c1`, the results for the IC50 in the assay with HepG2, in the assay on MCF7 and with K562 [1] were 10.2 µM, 18.9 µM and 9.7 µM, respectively.
As for `COc1ccc2nc3cc(Cl)ccc3c(NCCN)c2c1`, the values for the IC50 in the assay on HepG2, with MCF7 and in the assay with K562 [1] were 6 µM, 9.3 µM and 7 µM, respectively.
For `COc1cccc(Nc2c3ccc(Cl)cc3nc3ccc(OC)cc23)c1`, in that order: 14.9 µM, above 50 µM and 2.7 µM.
As for `COc1ccc2nc3cc(Cl)ccc3c(Nc3ccc(C(=O)O)c(O)c3)c2c1`, the inhibition is 2.8% in assay [2] and 5.4% in [3]. Moreover, the IC50 with HepG2 was above 50 µM; in the assay with MCF7, above 50 µM; in the assay with K562 [1], 18.7 µM. The inhibition result in assay [4] was “inactive”.
As to `COc1ccc(Nc2c3ccc(Cl)cc3nc3ccc(OC)cc23)cc1`, the IC50 with HepG2 is 6.3 µM; in the assay with MCF7, above 50 µM; in the assay on K562 [1], 2.2 µM. The “Ratio IC50” value in the assay on K562 [5] was 2.5.
With `COc1ccc2nc3cc(Cl)ccc3c(Nc3cccc(N)n3)c2c1`, the inhibition in assay [2] was determined as 6.12%; in assay [3], 3.77%. Moreover, the IC50 is 32.7 µM in the assay on HepG2, 17.6 µM in the assay with MCF7 and 12 µM with K562 [1].
For the compound `COc1ccc2nc3cc(Cl)ccc3c(Nc3ccccc3OC)c2c1`, the figures for the IC50 in the assay on HepG2, in the assay on MCF7 and in the assay with K562 [1] were above 50 µM, above 50 µM and 5.4 µM, respectively.
As for `COc1ccc2nc3cc(Cl)ccc3c(NCc3ccccc3OC)c2c1`, the inhibition was 8.02% in [2], 44% in assay [3] and “tde” in assay [6]. Moreover, the IC50 with HepG2 was 4.2 µM; with MCF7, 23.8 µM; in the assay with K562 [1], 5 µM. In [7], the inhibition result is “Active”. The inhibition entry in [4] is “inactive”.
As to `COc1ccc2nc3cc(Cl)ccc3c(Nc3ccc(C(F)(F)F)cc3)c2c1`, the IC50 was above 50 µM with HepG2, above 50 µM with MCF7 and 10.8 µM with K562 [1].
For the compound `COc1ccc2nc3cc(Cl)ccc3c(Nc3ccccc3Cl)c2c1`, the values for the IC50 in the assay with HepG2, in the assay with MCF7 and in the assay on K562 [1] were 30.2 µM, above 50 µM and 23.8 µM, respectively.
For `CCOc1ccc(Nc2c3ccc(Cl)cc3nc3ccc(OC)cc23)cc1`, in that order: 7.4 µM, 41.6 µM and 3.2 µM.
`COc1ccc2nc3cc(Cl)ccc3c(Nc3cccnc3N)c2c1`: the IC50 in the assay on HepG2 was 10.6 µM; with MCF7, 23.2 µM; in the assay on K562 [1], 11.7 µM.
`CN[C@@H]1C[C@H]2O[C@@](C)([C@@H]1OC)n1c3ccccc3c3c4c(c5c6ccccc6n2c5c31)C(=O)NC4` came in with an inhibition in [2] of 99.4%.
For `COc1ccc2nc3cc(Cl)ccc3c(Nc3ccncc3)c2c1`, the IC50 is 4.1 µM in the assay with HepG2, above 50 µM in the assay with MCF7 and 7.3 µM in the assay on K562 [1].
Regarding `CCOc1ccccc1Nc1c2ccc(Cl)cc2nc2ccc(OC)cc12`, the values for the IC50 in the assay on HepG2, in the assay on MCF7 and in the assay with K562 [1] were 27.9 µM, above 50 µM and 9 µM, respectively.
Regarding `COc1ccc2nc3cc(Cl)ccc3c(Nc3ccc(C)cc3)c2c1`, the figures for the IC50 in the assay on HepG2, in the assay with MCF7 and with K562 [1] were 8.8 µM, 19.9 µM and 5.5 µM, respectively.
In the case of `COc1ccc2nc3cc(Cl)ccc3c(Nc3ccc(N)cc3)c2c1`, the IC50 is 11 µM with HepG2, 23.2 µM in the assay with MCF7 and 7.7 µM with K562 [1].
Consider `COc1cc2c(c(OC)c1OC)-c1ccc(OC)c(=O)cc1[C@@H](NC(C)=O)CC2` [COLCHICINE], for which the IC50 with HepG2 and with MCF7 was 1.9 µM each time.
With `COc1ccc2nc3cc(Cl)ccc3c(Nc3cccc(NC(C)=O)c3)c2c1`, the IC50 in the assay on HepG2 is 36.8 µM; in the assay with MCF7, above 50 µM; in the assay with K562 [1] it was 21.3 µM.
In the assay on K562 [1], `Cc1ccc(NC(=O)c2ccc(CN3CCN(C)CC3)cc2)cc1Nc1nccc(-c2cccnc2)n1` [IMATINIB] returned an IC50 of 5.4 µM.
As to `Cn1c(Nc2ccc(C(F)(F)F)cc2)nc2cc(Oc3ccnc(-c4ncc(C(F)(F)F)[nH]4)c3)ccc21` [RAF-265], the IC50 (in the assay with SK-MEL-28; in assay [8]; in the assay on Malme-3M) was 0.14 µM each time.
Regarding `COc1ccc2nc3cc(Cl)ccc3c(Nc3cc(OC)c(OC)c(OC)c3)c2c1`, the IC50 with HepG2 is 16.8 µM; in the assay with MCF7, above 50 µM; in the assay with K562 [1], 31 µM.
In the case of `COc1ccc2nc3cc(Cl)ccc3c(Nc3cccc(O)c3)c2c1`, the IC50 turned out to be 9.6 µM in the assay with HepG2, 13.2 µM in the assay with MCF7 and 5.5 µM with K562 [1].
